Laboratory results: ChEMBL document CHEMBL1129810, “Eicosanoid biosynthesis: differential inhibition of cytochrome P450 epoxygenase and -hydroxylase” (Bioorg Med Chem Lett, 1997)

Target: T1, Cytochrome P450 2C23 (Rattus norvegicus, UniProt P24470)
T1 sequence (P24470 whole entry): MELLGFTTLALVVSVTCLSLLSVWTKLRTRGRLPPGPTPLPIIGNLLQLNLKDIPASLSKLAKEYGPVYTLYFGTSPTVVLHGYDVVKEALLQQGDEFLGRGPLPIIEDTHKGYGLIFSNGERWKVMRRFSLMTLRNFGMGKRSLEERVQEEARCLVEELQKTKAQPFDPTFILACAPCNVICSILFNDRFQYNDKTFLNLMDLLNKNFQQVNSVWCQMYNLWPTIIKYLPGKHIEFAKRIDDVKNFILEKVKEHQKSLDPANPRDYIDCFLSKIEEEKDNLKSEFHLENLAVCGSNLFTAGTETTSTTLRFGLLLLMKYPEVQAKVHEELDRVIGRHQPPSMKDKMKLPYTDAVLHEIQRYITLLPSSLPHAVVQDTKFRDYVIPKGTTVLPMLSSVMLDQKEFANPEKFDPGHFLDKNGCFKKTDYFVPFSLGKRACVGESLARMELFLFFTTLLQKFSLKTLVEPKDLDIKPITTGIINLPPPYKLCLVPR
Assay: Inhibition of Cytochrome P450 epoxygenase in rat kidney microsomes
Type: ADME

Row | IC50 | SMILES
1 | 5 µM | C#CC#CC(O)CCc1ccccc1-c1ccccc1CO (stereo not drawn)
2 | 6 µM | COC(=O)CCCCCCCC=C(Br)Br
3 | 6 µM | CS(=O)(=O)NC(=O)CCCCCCCC=C(Br)Br
